Assay results: US9795602B2, “Polycyclic-carbamoylpyridone compounds and their pharmaceutical use” (Gilead Sciences, Inc., priority 2014, dated 2017)
Read-outs that look alike come from different tables or passages of the source.

Tests used:
HIV-IIIb = experiment: Antiviral assay in MT4 cells; assay type: cell-based; conditions: MT4 cells, HIV-IIIb, 5 days, read-out: EC50
Procedure: 1 mL aliquots of 2×10^6 MT4 cells are pre-infected for 1 and 3 hours respectively at 37° C. with 25 μL (MT4) or of either cell growth medium (mock-infected) or a fresh 1:250 dilution of an HIV-IIIb concentrated ABI stock (0.004 m.o.i. for MT4 cells). Infected and uninfected cells are diluted in cell growth medium and 35 μL of 2000 (for MT4) cells is added to each well of the assay plates.
(§1) Assay plates were then incubated in a 37° C. incubator. After 5 days of incubation, 25 μL of 2× concentrated CellTiter-Glo™ Reagent (catalog # G7573, Promega Biosciences, Inc., Madison, Wis.) was added to each well of the assay plate. Cell lysis was carried out by incubating at room temperature for 2-3 minutes, and then chemiluminescence was read using the Envision reader (PerkinElmer).

[1] = Cytotoxicity (CC50) in MT4 cells, mock-infected; assay type: cell-based; conditions: human
Procedure: as §1, with “Infected and uninfected cells are diluted in cell growth medium and 35 μL of 2000 (for MT4) cells is added to each well of the assay plates. Assay” for “Assay”

OCT2 = OCT2 (Homo sapiens (Human), UniProt O15244); experiment: OCT2 inhibition assay (14C-TEA uptake, OCT2-transfected MDCKII cells); assay type: cell-based
OCT2, sequence (O15244 whole entry): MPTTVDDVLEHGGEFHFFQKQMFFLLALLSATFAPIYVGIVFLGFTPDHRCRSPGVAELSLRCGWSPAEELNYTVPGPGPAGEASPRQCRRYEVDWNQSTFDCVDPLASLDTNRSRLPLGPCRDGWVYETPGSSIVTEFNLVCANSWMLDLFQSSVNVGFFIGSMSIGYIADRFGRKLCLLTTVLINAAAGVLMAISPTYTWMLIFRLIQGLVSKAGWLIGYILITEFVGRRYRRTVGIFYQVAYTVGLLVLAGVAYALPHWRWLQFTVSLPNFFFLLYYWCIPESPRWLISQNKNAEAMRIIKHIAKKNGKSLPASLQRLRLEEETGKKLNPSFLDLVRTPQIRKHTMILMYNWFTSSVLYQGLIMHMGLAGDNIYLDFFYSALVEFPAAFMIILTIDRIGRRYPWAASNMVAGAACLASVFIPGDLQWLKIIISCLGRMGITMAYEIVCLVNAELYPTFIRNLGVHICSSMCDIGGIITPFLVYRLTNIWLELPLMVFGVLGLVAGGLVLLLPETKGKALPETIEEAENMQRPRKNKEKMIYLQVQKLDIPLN
Procedure: MDCKII cells were maintained in minimal essential medium (MEM) with 1% Pen/Strep, 10% fetal bovine serum, and 0.25 mg/mL hygromycin B in an incubator set at 37° C., 90% humidity and 5% CO2. 24 hours prior to assay, media containing 5 mM sodium butyrate were added to MDCKII cells in flasks, and cells were grown to 80-90% confluence. On assay day, cells were trypsinized and resuspended in Krebs-Henseleit Buffer (KHB), pH 7.4 at […]. Cells were preincubated for 15 min in assay plate before addition of test compound or substrate.
Test compounds were serially diluted in DMSO and then spiked (2 μL) into in 0.4 mL KHB buffer containing wild-type or OCT2-transfected cells and incubated for 10 minutes. Assay was initiated with the addition of 0.1 mL of 100 μM ^14C-TEA in KHB buffer (20 μM final concentration after mixing). The concentration of TEA is based on the Km. After 10 minutes of incubation, the assay mixture was quenched with addition of 0.5 mL of ice-cold 1×PBS buffer. Samples were then centrifuged at 1000 rpm for 5 min and supernatants were removed. Wash steps were repeated four times with ice-cold PBS. Finally, the cell pellets were lysed with 0.2N NaOH and let sit at room temperature for at least 30 min to ensure complete lysis. Samples were then counted on liquid scintillation counter and dpm counts were used to perform the following calculations. The % inhibition was calculated as follows: % inhibition=[1−{[OCT2]i−[WT]ni}/{[OCT2]ni−[WT]ni}]*100 where, [OCT2]i represents the dpm count in the presence of test compound for either OCT2 cells, […] of test compound for OCT2 cells and [WT]ni represents the dpm count in the absence of test compound for wild type cells, respectively.

PXR (NR1I2) = PXR (NR1I2) (Homo sapiens (Human), UniProt O75469); experiment: Human PXR activation assay (luciferase reporter, DPX2 cells); assay type: cell-based; conditions: human; 15 uM; DPX2 cells; % Emax relative to rifampicin, adjusted for DMSO background; read-out: PXR % inh at 15 uM (adjusted)
PXR (NR1I2), sequence (O75469 whole entry): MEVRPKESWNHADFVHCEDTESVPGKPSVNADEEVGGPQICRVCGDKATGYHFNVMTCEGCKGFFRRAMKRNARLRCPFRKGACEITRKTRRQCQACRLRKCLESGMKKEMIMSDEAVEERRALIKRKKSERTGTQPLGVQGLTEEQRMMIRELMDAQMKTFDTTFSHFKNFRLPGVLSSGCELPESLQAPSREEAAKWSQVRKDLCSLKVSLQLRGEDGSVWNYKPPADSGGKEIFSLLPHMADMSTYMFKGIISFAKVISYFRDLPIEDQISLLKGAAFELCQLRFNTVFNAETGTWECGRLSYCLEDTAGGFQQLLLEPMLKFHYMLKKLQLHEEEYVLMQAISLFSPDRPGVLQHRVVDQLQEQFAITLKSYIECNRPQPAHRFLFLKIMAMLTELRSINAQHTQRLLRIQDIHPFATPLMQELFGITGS
Procedure: Luciferase Reporter Gene Assay.
A stably transformed tumor cell line (DPX2) was plated on 96-well microtiter plates. […]. The number of viable cells was determined and the reporter gene activity was assessed. […]

HIV-1 E138K/Q148K = assay type: cell-based; conditions: MT2 cells; mean EC50 mutant / mean EC50 wt
Procedure: (§2) For the antiviral assay utilizing MT-2 cells, 50 μL of 2× test concentration of 3-fold serially diluted compound in culture medium with 10% FBS was added to each well of a 96-well plate (9 concentrations) in triplicate. MT-2 cells were infected with wild-type or mutant variants of HIV-1 for 3 hours using a volume of viral inoculum determined to produce 90% cell killing. Fifty microliters of infected cell suspension in culture medium with 10% FBS (˜1.5×10^4 cells) was then added to each well containing 50 μL of serially diluted compound. The plates with HIV-infected cultures were then incubated at 37° C. for 5 days in the presence of the tested compounds. After 5 days of incubation, 100 μL of CellTiter-Glo™ Reagent (catalog # G7571, Promega Biosciences, Inc., Madison, Wis.) was added to each well. Cell lysis was carried out by incubating at room temperature for 10 min followed by a chemiluminescence read-out.
(§3) The chemiluminescence readout from the 10-point antiviral dose response was analyzed directly by curve fitting with equation (I) to determine the EC50.
(§4) where y=Cell Survival, M=maximum cell survival enabled by drug protection, H=baseline cell survival without drug protection, n=Hill coefficient of the antiviral dose response, m=Hill coefficient of the cytotoxicity dose response, and [I]=inhibitor concentration.
(§5) EC50 values (mean±standard deviation) were calculated from at least three independent experiments performed in triplicate. The fold-change in antiviral activity of tested compounds was calculated as a ratio of the mean EC50 for each mutant virus divided by the mean EC50 of the control WT virus.

HIV-1 E92Q/N155H = assay type: cell-based; conditions: MT2 cells; mean EC50 mutant / mean EC50 wt
Procedure: as §2, §3, §4, §5

HIV-1 G140S/Q148R = assay type: cell-based; conditions: MT2 cells; mean EC50 mutant / mean EC50 wt
Procedure: as §2, §3, §4, §5

HIV-1 N155H/Q148R = assay type: cell-based; conditions: MT2 cells; mean EC50 mutant / mean EC50 wt
Procedure: as §2, §3, §4, §5

wild-type HIV-1 = experiment: Antiviral assay in MT-2 cells, wild-type HIV-1; assay type: cell-based; conditions: Human immunodeficiency virus 1, 120 h; MT2 cells, wild-type HIV-1, 5 days; read-out: wt
Procedure: as §2, §3, §4, §5

[2] = Plasma protein binding (equilibrium dialysis); assay type: in vitro ADME; conditions: human, plasma (sodium EDTA) versus buffer; 2 μM in plasma vs. buffer, 24 hours at 37° C.; read-out: % Free HP/Buffer
Procedure: Plasma protein binding was determined using a HTD96b equilibrium dialyzer with a plate base, stainless steel pressure plate and Teflon bock. 9 Teflon bars, labeled sequentially from A through I, were assembled with two stainless steel connecting rods. Membranes were placed between two Teflon bars, with the membrane placed approximately 2 mm below the top edge of the bar and the lower membrane edge overlapped the bottom of all wells. The membrane was soaked for about 20 minutes in water, about 20 minutes in ethanol (30/70 v/v) and rinsed with water three times to remove the ethanol. It was soaked in PBS for at least 30 minutes. Plasma in sodium EDTA (Bioreclamation or equivalent) was used. The Plasma (not pH-adjusted) was stored at −80° C. and thawed at room temperature before use. The stock solution of the compounds tested was at 200 μM in DMSO. The quench solution used was 50 nM of an internal standard in 100% ACN. To prepare a 2 μM solution of the compound tested in plasma, 5 μL of a 200 μM stock solution was added to 495 μL of blank plasma. 100 μL plasma was added with 2 μM of test compound into one side of the well. 100 μL of buffer (for plasma vs. buffer) was added into another side of the well. The 96-well plate was covered using an adhesive sealing film and incubated for 24 hours at 37° C. under slow rotation. This procedure was replicated for each compound. 50 μL of plasma sample was put into a 96 well plate, 50 μL of buffer was added. 50 μL of buffer was put into a 96 well plate. 50 μL of plasma was added. 300 μL of quench solution was added and the plate sealed and shaken for 15 minutes. The material was centrifuged for 30 minutes at 3000 RPM and ˜250 μL was transferred into a short plate. The samples were analyzed by LC/MS. The resulting data is shown in the last row of Table 3 as “% Free” which corresponds to the percentage of compound not protein bound.

[3] = Human immunodeficiency virus 1, IIIB, MT4, 120 h

SMILES	EC50 (HIV-IIIb; [3])	CC50 at 5 days ([1]; mock-infected (uninfected))	IC50 (OCT2)	inhibition at 24 h, 15 µM (PXR (NR1I2))	Resistance fold shift E138K/Q148K vs. wild type (HIV-1 E138K/Q148K)	Resistance fold shift E92Q/N155H vs. wild type (HIV-1 E92Q/N155H)	Resistance fold shift G140S/Q148R vs. wild type (HIV-1 G140S/Q148R)	Resistance fold shift N155H/Q148R vs. wild type (HIV-1 N155H/Q148R)	EC50 (wild-type HIV-1)	fraction unbound at 24 h, 2 µM [2]	EC50 (HIV-IIIb; Human immunodeficiency virus 1, 120 h)	CC50 at 5 days ([1]; mock-infected)
CCN1C(=O)c2c(O)c(=O)c(C(=O)NCc3c(F)cc(F)cc3F)cn2[C@@H]2CCOC[C@H]21 [Compound 12]	6.26 nM	36500 nM	6400 nM	18%	–	–	–	–	–	–	–	–
CCN1C(=O)c2c(O)c(=O)c(C(=O)NCc3c(F)cc(F)cc3F)cn2[C@H]2CCOC[C@H]21 [Compound 33]	2.84 nM	31100 nM	–	12%	5.9 fold shift	0.9 fold shift	2.5 fold shift	2.2 fold shift	2.5 nM	0.056	–	–
O=C(NCc1c(F)cc(F)cc1F)c1cn2c(c(O)c1=O)C(=O)N(CC(F)(F)F)[C@H]1COCC[C@H]12 [Compound 31]	2.62 nM	52500 nM	10000 nM	1%	–	–	–	–	–	–	–	–
CCN1C(=O)c2c(O)c(=O)c(C(=O)NCc3c(F)cc(F)cc3F)cn2[C@H]2COC[C@H]21 [Compound 44]	5.68 nM	38000 nM	–	32%	23.8 fold shift	2.3 fold shift	5.9 fold shift	17.7 fold shift	7.8 nM	0.068	–	–
CCN1C(=O)c2c(O)c(=O)c(C(=O)NCc3ccc(F)cc3F)cn2[C@H]2CCOC[C@H]21 [Compound 41]	2.88 nM	27400 nM	–	21%	3.5 fold shift	2.1 fold shift	2.9 fold shift	1.8 fold shift	2 nM	0.057	–	–
CCN1C(=O)c2c(O)c(=O)c(C(=O)NCc3ccc(F)c(F)c3F)cn2[C@H]2CCOC[C@H]21 [Compound 19]	4.28 nM	27800 nM	–	11%	–	–	–	–	–	–	–	–
CN1C(=O)c2c(O)c(=O)c(C(=O)NCc3c(F)cc(F)cc3F)cn2[C@@H]2CCOC[C@@H]21 [Compound 30]	3.25 nM	10400 nM	–	9%	–	–	–	–	–	–	–	–
CN1C(=O)c2c(O)c(=O)c(C(=O)NCc3ccc(F)c(Cl)c3F)cn2[C@@H]2CCOC[C@H]21 [Compound 11]	3.69 nM	8320 nM	–	4%	–	–	–	–	–	–	–	–
CN1C(=O)c2c(O)c(=O)c(C(=O)NCc3c(F)cc(F)cc3F)cn2[C@H]2COCC[C@]21C [Compound 14]	2.89 nM	11600 nM	–	26%	–	–	–	–	–	–	–	–
CN1C(=O)c2c(O)c(=O)c(C(=O)NCc3c(F)cc(F)cc3F)cn2[C@H]2C[C@@H]3C[C@@H]3[C@H]21 [Compound 51, (6aR,6bS,7aS,8aS)-4-hydroxy-6-methyl-3,5-dioxo-N-(2,4,6-trifluorobenzyl)-5,6,6a,6b,7,7a,8,8a-octahydro-3H-cyclopropa[4,5]cyclopenta[1,2-e]pyrido[1,2-a]pyrazine-2-carboxamide]	–	–	–	33%	–	–	–	–	–	–	5.28 nM	6710 nM
